The text below walks through data of ChEMBL document CHEMBL1155461, “Emerging targets in osteoporosis disease modification” (J Med Chem, 2010).

For assay [1], the system named is Homo sapiens. Kind of assay: Antiosteoporotic activity in men with osteoporosis assessed as decrease in bone resorption-associated urinary CTX-1 level at 250 mg/kg after 10 to 14 days. The class given is functional. The conditions noted are these: Urine.
Assay [2] has as its system Homo sapiens. Kind of assay: Antiosteoporotic activity in men with osteoporosis assessed as decrease in bone resorption-associated serum CTX-1 level at 250 mg/kg after 10 to 14 days. It is filed as functional, organism-based. Also on record: dose 250 mg/kg. The conditions noted are these: dose 250 mg/kg.
The test system of assay [3] is Rattus norvegicus. Briefly: Short duration (5-10 min) elevation in PTH as Cmax in rats after 10 umol/kg intravenous dose. It is filed as functional, organism-based.
The subject of assay [4] is MC3T3-E1. Kind of assay: Induction of osteogenesis in mouse MC3T3-E1 cells assessed as increase in osteoblast differentiation-associated collagen synthesis at 0.3 uM. The class given is functional.
Assay [5] relates to MC3T3-E1. Kind of assay: Induction of osteogenesis in mouse MC3T3-E1 cells assessed as increase in bone mineralization at 0.3 uM. The class given is functional.
Assay [6] deals with MC3T3-E1. Kind of assay: Induction of osteogenesis in mouse MC3T3-E1 cells assessed as increase in osteoblast differentiation-associated ALP level at 0.3 uM. It is filed as functional.
Assay [7] relates to Homo sapiens. Kind of assay: Antiosteoporotic activity in postmenopausal woman with osteoporosis assessed as decrease in bone resorption-associated serum CTX-1 level at 50 mg/kg. It is filed as functional.
Assay [8] concerns Homo sapiens. Kind of assay: Antiosteoporotic activity in postmenopausal woman with osteoporosis assessed as decrease in bone resorption-associated urinary CTX-1 level at 50 mg/kg. It is filed as functional. The note with it: Urine.
For assay [9], the system named is Homo sapiens. Kind of assay: Antiosteoporotic activity in postmenopausal woman with osteoporosis assessed as increase lumbar spine bone mineral density at 50 mg/kg. It is filed as functional.
Assay [10] relates to Homo sapiens. Kind of assay: Antiosteoporotic activity in postmenopausal woman with osteoporosis assessed as increase hip bone mineral density at 50 mg/kg. It is filed as functional, Bone of hip region.
Assay [11] addresses T1, Extracellular calcium-sensing receptor (Homo sapiens, UniProt P41180).
T1 sequence (P41180 whole entry): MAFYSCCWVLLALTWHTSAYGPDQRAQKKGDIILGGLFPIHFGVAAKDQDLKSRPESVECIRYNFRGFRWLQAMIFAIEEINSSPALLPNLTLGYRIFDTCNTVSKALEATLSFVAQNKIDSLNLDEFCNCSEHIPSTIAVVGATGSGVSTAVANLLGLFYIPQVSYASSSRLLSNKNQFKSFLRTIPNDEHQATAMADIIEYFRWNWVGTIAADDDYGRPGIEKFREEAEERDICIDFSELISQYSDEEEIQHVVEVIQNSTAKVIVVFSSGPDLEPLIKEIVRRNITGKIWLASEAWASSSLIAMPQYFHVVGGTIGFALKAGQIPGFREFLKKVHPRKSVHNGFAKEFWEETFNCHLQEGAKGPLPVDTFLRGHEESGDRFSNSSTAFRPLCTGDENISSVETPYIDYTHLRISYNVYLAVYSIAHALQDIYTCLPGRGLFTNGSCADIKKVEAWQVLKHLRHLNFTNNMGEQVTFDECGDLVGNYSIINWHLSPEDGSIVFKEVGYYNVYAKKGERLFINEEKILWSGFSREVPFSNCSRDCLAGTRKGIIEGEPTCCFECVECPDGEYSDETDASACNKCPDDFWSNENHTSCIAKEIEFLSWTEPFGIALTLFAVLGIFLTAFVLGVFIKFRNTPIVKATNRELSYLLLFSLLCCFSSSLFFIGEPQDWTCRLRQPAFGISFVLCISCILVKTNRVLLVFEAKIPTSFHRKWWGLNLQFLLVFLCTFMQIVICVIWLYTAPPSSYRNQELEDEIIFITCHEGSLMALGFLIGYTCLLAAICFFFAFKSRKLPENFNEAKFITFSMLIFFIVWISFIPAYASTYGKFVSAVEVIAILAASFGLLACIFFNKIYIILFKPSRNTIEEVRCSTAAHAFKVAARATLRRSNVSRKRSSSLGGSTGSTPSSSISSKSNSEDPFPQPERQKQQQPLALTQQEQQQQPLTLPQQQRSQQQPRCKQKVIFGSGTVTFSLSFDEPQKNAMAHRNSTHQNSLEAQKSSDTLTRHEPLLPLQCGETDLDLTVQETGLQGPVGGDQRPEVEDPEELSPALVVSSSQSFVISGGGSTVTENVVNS

In assay [12] the test system is Rattus norvegicus. Briefly: Short duration (5-10 min) elevation in PTH as Cmax in rats after 3 umol/kg intravenous dose. The class given is functional.
Assay [13] deals with T2, Integrin alpha-V/beta-3 (Homo sapiens, UniProt P05106+P06756).
Target sequence in this assay (P05106 27-788 limits assumed): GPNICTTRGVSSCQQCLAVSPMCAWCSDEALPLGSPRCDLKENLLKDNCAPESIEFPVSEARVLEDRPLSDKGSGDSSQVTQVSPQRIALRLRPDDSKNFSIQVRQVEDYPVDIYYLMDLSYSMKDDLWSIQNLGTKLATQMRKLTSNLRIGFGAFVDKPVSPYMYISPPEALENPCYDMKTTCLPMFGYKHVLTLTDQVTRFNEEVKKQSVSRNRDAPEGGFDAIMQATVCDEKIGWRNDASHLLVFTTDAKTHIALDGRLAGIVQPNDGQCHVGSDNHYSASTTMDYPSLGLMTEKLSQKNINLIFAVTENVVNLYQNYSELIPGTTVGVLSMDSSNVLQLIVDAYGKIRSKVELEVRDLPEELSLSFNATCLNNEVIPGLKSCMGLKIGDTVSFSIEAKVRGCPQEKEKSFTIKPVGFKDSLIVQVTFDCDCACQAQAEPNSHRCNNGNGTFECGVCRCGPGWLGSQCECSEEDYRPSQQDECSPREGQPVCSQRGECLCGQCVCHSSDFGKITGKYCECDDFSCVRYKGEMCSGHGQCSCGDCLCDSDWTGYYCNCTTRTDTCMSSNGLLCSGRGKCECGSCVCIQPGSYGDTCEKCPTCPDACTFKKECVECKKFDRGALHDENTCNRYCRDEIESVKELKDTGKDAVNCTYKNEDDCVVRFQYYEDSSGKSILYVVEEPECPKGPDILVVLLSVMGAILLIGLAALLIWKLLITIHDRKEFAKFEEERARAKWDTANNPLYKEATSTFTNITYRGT
Target sequence in this assay (P06756 31-889 limits assumed): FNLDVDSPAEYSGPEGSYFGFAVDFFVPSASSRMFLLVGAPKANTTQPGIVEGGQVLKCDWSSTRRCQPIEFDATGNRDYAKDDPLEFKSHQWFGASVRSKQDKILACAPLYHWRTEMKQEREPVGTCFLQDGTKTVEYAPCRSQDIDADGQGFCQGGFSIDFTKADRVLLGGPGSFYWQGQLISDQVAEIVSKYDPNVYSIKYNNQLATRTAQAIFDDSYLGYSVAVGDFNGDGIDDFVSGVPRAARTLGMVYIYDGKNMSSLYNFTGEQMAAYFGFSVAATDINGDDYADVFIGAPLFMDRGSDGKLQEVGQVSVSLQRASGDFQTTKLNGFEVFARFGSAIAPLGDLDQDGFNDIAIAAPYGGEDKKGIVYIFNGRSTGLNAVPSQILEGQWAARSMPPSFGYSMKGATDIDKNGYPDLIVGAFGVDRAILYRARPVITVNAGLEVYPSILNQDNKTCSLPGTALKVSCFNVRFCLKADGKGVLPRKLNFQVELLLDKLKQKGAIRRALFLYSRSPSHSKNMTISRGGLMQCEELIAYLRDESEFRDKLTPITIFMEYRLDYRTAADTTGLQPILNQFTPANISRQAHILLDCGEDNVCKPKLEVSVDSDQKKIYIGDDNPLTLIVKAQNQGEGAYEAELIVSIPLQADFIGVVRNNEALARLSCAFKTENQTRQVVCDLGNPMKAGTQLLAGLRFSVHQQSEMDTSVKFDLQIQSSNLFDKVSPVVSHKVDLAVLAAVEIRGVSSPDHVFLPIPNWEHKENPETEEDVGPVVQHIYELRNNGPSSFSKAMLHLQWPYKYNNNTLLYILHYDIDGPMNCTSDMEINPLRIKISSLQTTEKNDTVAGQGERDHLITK
Target sequence in this assay (P06756 891-1048 limits assumed): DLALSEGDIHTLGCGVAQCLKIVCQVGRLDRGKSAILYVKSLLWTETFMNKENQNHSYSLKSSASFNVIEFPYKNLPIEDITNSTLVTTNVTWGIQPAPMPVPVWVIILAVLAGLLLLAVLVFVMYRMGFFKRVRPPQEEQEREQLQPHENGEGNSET
Assay [14] has as its system MC3T3-E1. Briefly: Induction of osteogenesis in mouse MC3T3-E1 cells assessed as increase in osteoblast differentiation-associated collagen synthesis at 0.03 uM. It is filed as functional.
Assay [15] deals with MC3T3-E1. Briefly: Induction of osteogenesis in mouse MC3T3-E1 cells assessed as increase in osteoblast differentiation-associated ALP level at 0.03 uM. The class given is functional.
In assay [16] the test system is MC3T3-E1. Kind of assay: Induction of osteogenesis in mouse MC3T3-E1 cells assessed as increase in bone mineralization at 0.03 uM. It is filed as functional.
Assay [17] is described as follows: Selectivity for cathepsin K over cathepsin S.
Assay [18] concerns the target Cathepsin K (Homo sapiens, UniProt P43235).
The nature of assay [19]: Selectivity for cathepsin K over cathepsin L.
Assay [20] in a line: Induction of osteogenesis in rat ROS 17/2.8 cells assessed as stimulation of cell proliferation at 1 nM. The class given is functional.
Assay [21] is described as follows: Selectivity for integrin alphaVbeta3 over integrin alpha2Bbeta3.
Assay [22] has as its target Integrin alpha-V/beta-5 (Homo sapiens) (UniProt P06756+P18084). Kind of assay: Inhibition of integrin alpha-V-beta-5-mediated adhesion of HEK293 cells. It is filed as cell-based.
The target of assay [23] is Integrin alpha-V/beta-1 (Homo sapiens) (UniProt P05556+P06756). Briefly: Inhibition of integrin alpha-V-beta-1-mediated adhesion of HEK293 cells. It is filed as cell-based.
Assay [24] deals with Integrin alpha-V/beta-6 (Homo sapiens) (UniProt P06756+P18564). Kind of assay: Inhibition of integrin alpha-V-beta-6-mediated adhesion of human HT-29 cells. It is filed as cell-based.
In assay [25] the target is T2, Integrin alpha-V/beta-3. Briefly: Inhibition of integrin alpha-V-beta-3-mediated adhesion of HEK293 cells. The class given is cell-based.
Assay [26] deals with MC3T3-E1. Kind of assay: Induction of osteogenesis in mouse MC3T3-E1 cells assessed as increase in bone mineralization at 1 uM. It is filed as functional.
For assay [27], the system named is MC3T3-E1. Briefly: Induction of osteogenesis in mouse MC3T3-E1 cells assessed as increase in osteoblast differentiation-associated collagen synthesis at 0.01 uM. It is filed as functional.
The nature of assay [28]: Induction of osteogenesis in rat UMR106 cells assessed as stimulation of cell proliferation at 10 nM. The class given is functional.
Assay [29] has as its target T2, Integrin alpha-V/beta-3. Briefly: Inhibition of integrin alpha-V-beta-3-mediated adhesion of human cells M21 cells. It is filed as cell-based.
Target sequence in this assay (P05106 27-788 limits assumed): as the sequence (P05106 27-788 limits assumed) above
Target sequence in this assay (P06756 31-889 limits assumed): as the sequence (P06756 31-889 limits assumed) above
Target sequence in this assay (P06756 891-1048 limits assumed): as the sequence (P06756 891-1048 limits assumed) above

Cathepsin K, sequence (P43235 whole entry): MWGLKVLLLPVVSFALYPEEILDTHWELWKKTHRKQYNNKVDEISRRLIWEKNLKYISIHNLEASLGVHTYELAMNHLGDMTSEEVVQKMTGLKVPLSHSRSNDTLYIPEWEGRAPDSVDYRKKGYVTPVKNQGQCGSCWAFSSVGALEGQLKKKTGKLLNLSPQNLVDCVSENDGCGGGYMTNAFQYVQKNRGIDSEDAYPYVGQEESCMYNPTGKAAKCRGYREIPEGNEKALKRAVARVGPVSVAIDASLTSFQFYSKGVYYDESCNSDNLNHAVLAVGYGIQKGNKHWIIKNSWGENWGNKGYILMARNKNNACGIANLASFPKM

Take `CN1CCN(CCOc2cc(OC3CCOCC3)c3c(Nc4c(Cl)ccc5c4OCO5)ncnc3c2)CC1` [SARACATINIB]: the inhibition in vivo at 250 mg/kg in assay [1] was 67%; in [2], 88%.
In the case of `O=c1c2ccccc2nc(-c2ccccc2O)n1CCc1ccccc1`, the Cmax PTH in [3] came to 400 pg/mL.
On to `CO[C@@]1(C)CC/C=C(\C)CCC2=C(C)CO[C@H]2/C=C(\C)CC[C@@H]1O`, for which the Activity in [4] is 108.2%; in assay [5], 110.6%; in [6] it was 127.8%.
Turning to `CCCN1CCN(c2ccc(C(=O)NC3(C(=O)NCC#N)CCCCC3)cc2)CC1` [BALICATIB], the inhibition in vivo at 50 mg/kg was 61% in [7] and 55% in assay [8]. Further, the values for the Activity in [9] and in assay [10] were 4.46% and 2.25%, respectively.
With `CCc1cc2c(=O)n(CCc3ccccc3F)c(-c3ccccc3O)nc2cc1C`, the concentration for half-maximal inhibition (IC50) in [11] came out at 97 nM. The compound also yielded a Cmax PTH in assay [12] of 600 pg/mL.
As for `COc1cc(Cl)c(/C=C2\S/C(=N/c3cccc(C(=O)O)c3)N(C)C2=O)cc1OC`, the IC50 in assay [13] came to 30 nM.
With `C=CCc1ccc(O)c(O[C@@H]2O[C@H](CO[C@@H]3OC[C@](O)(CO)[C@H]3O)[C@@H](O)[C@H](O)[C@H]2O)c1` [MANGLIESIDE B], the Activity in [14] came to 123%; in assay [15], 114%; in assay [16] it was 118%.
On to `CC(C)(C)Cn1c(CN2C(=O)CC3(CCNCC3)C2=O)cc2cnc(C#N)nc21`, for which the Selectivity ratio was more than 10000 in assay [17] and more than 1000 in assay [19]. In [18], this compound returned an IC50 of less than 1 nM.
Regarding `C[C@@H]1O[C@@H](O[C@H]2[C@H](Oc3cc(O)c4c(c3)O[C@H](c3ccc(O)cc3)CC4=O)O[C@H](CO)[C@@H](O)[C@@H]2O)[C@H](O)[C@H](O)[C@H]1O` [NARINGIN], the Activity in assay [20] is 150%.
As to `O=C(O)C[C@H](Cc1nc(CCCc2ccc3c(n2)NCCC3)no1)c1ccc2c(c1)OCO2`, in assay [21], the Selectivity ratio was determined as 67. Moreover, the Activity worked out at 1.7 nM in [22], 2.6 nM in [23], 2.7 µM in [24] and 0.65 nM in assay [25].
Consider `COc1c(O)cc2c(O)c3c(O)c(O)c(O[C@@H]4O[C@@H](C)[C@H](O)[C@@H](O)[C@H]4O)cc3c(O)c2c1O`, for which the Activity in assay [26] stood at 125%; in assay [27], 111%.
Take `O=c1c(O[C@@H]2O[C@H](CO)[C@@H](O)[C@H](O)[C@H]2O)c(-c2ccc(O)cc2)oc2cc(O[C@@H]3O[C@@H](CO)[C@H](O)[C@H]3O)cc(O)c12`: the Activity in [28] was determined as 35.9%.
On to `N=C(N)N=C(N)Nc1cc(Cl)cc(Cl)c1`, for which the concentration for half-maximal inhibition (IC50) in assay [29] was 33.5 nM.
